Results from ChEMBL document CHEMBL1933065, “Synthesis and antifungal evaluation of pyrido[1,2-a]indole-1,4-diones and benzo[f]pyrido[1,2-a]indole-6,11-diones” (2012).
Values after ≈ are worked out from the molar mass of the structure shown.

Tests used:
Assay type in all cases: functional
[1] = system: Candida albicans; experiment: Antifungal activity against Candida albicans Berkout KCCM 50235 after 1 day by standard two fold broth dilution method; settings: Berkout KCCM 50235, 24 h
[2] = system: Candida tropicalis; experiment: Antifungal activity against Candida tropicalis Berkout KCCM 50662 after 1 day by two fold broth dilution method; settings: Berkout KCCM 50662, 24 h
[3] = system: Pichia kudriavzevii; experiment: Antifungal activity against Candida krusei Berkout KCCM 11655 after 1 day by two fold broth dilution method; settings: Berkout KCCM 11655, 24 h
[4] = system: Cryptococcus neoformans; experiment: Antifungal activity against Cryptococcus neoformans Berkout KCCM 50564 after 1 day by two fold broth dilution method; settings: Berkout KCCM 50564, 24 h
[5] = system: Aspergillus niger; experiment: Antifungal activity against Aspergillus niger KCTC 1231 after 2 days by two fold broth dilution method; settings: KCTC 1231, 48 h
[6] = system: Aspergillus flavus; experiment: Antifungal activity against Aspergillus flavus KCCM 11899 after 2 days by two fold broth dilution method; settings: KCCM 11899, 48 h

Row | SMILES | MIC [1] [µg/mL] | MIC [2] [µg/mL] | MIC [3] [µg/mL] | MIC [4] [µg/mL] | MIC [5] [µg/mL] | MIC [6] [µg/mL]
1 | CCc1ccn2c3c(c(C(C)=O)c2c1)C(=O)C(C)=C(C)C3=O | 6.3 (≈ 21.3 µM) | 12.5 (≈ 42.3 µM) | 3.2 (≈ 10.8 µM) | 6.3 (≈ 21.3 µM) | 1.6 (≈ 5.42 µM) | 3.2 (≈ 10.8 µM)
2 | CCOC(=O)c1c2c(n3ccc(C)cc13)C(=O)C(C)=C(C)C2=O | 6.3 (≈ 20.2 µM) | 50 (≈ 161 µM) | 6.3 (≈ 20.2 µM) | 12.5 (≈ 40.1 µM) | 3.2 (≈ 10.3 µM) | 6.3 (≈ 20.2 µM)
3 | COC(=O)c1c2c(n3ccc(C)cc13)C(=O)C(C)=C(C)C2=O | 6.3 (≈ 21.2 µM) | 6.3 (≈ 21.2 µM) | 6.3 (≈ 21.2 µM) | 25 (≈ 84.1 µM) | 6.3 (≈ 21.2 µM) | 3.2 (≈ 10.8 µM)
4 | CCc1ccn2c3c(c(C(=O)OC)c2c1)C(=O)C(C)=C(C)C3=O | 3.2 (≈ 10.3 µM) | 12.5 (≈ 40.1 µM) | 25 (≈ 80.3 µM) | 0.8 (≈ 2.57 µM) | 1.6 (≈ 5.14 µM) | 6.3 (≈ 20.2 µM)
5 | CC1=C(C)C(=O)c2c(cc3cc(C)ccn23)C1=O | 12.5 (≈ 52.2 µM) | 6.3 (≈ 26.3 µM) | 12.5 (≈ 52.2 µM) | 6.3 (≈ 26.3 µM) | 12.5 (≈ 52.2 µM) | 1.6 (≈ 6.69 µM)
6 | CC(=O)c1c2c(n3cc(Cl)ccc13)C(=O)C(C)=C(C)C2=O | 6.3 (≈ 20.9 µM) | 12.5 (≈ 41.4 µM) | 3.2 (≈ 10.6 µM) | 6.3 (≈ 20.9 µM) | 1.6 (≈ 5.3 µM) | 3.2 (≈ 10.6 µM)
7 | CCOC(=O)c1c2c(n3ccc(C#N)cc13)C(=O)C(C)=C(C)C2=O | 3.2 (≈ 9.93 µM) | 3.2 (≈ 9.93 µM) | 6.3 (≈ 19.5 µM) | 6.3 (≈ 19.5 µM) | 6.3 (≈ 19.5 µM) | 3.2 (≈ 9.93 µM)
8 | COC(=O)c1c2c(n3cc(C)ccc13)C(=O)c1ccccc1C2=O | 25 (≈ 78.3 µM) | > 100 | 50 (≈ 157 µM) | 25 (≈ 78.3 µM) | 25 (≈ 78.3 µM) | 50 (≈ 157 µM)
9 | Cc1ccn2c3c(c(C)c2c1)C(=O)c1ccccc1C3=O | 6.3 (≈ 22.9 µM) | 12.5 (≈ 45.4 µM) | 50 (≈ 182 µM) | 12.5 (≈ 45.4 µM) | 3.2 (≈ 11.6 µM) | 25 (≈ 90.8 µM)
10 | CC1=C(C)C(=O)C([n+]2ccc(C)cc2)=C(Cl)C1=O.[Cl-] | 12.5 | 6.3 | 6.3 | 3.2 | 25 | 6.3
11 | COc1ccn2c3c(cc2c1)C(=O)c1ccccc1C3=O | 50 (≈ 180 µM) | 25 (≈ 90.2 µM) | > 100 | > 100 | 25 (≈ 90.2 µM) | 6.3 (≈ 22.7 µM)
12 | Cc1cc[n+](C2=C(Cl)C(=O)c3ccccc3C2=O)cc1.[Cl-] | > 100 | > 100 | > 100 | > 100 | 50 | > 100
13 | CCc1ccn2c3c(c(C)c2c1)C(=O)c1ccccc1C3=O | 12.5 (≈ 43.2 µM) | 12.5 (≈ 43.2 µM) | 6.3 (≈ 21.8 µM) | 6.3 (≈ 21.8 µM) | 50 (≈ 173 µM) | 3.2 (≈ 11.1 µM)
14 | COc1ccn2c3c(c(C)c2c1)C(=O)c1ccccc1C3=O | 25 (≈ 85.8 µM) | > 100 | 50 (≈ 172 µM) | 25 (≈ 85.8 µM) | 25 (≈ 85.8 µM) | 50 (≈ 172 µM)
15 | CCOC(=O)c1c2c(n3cc(C)ccc13)C(=O)c1ccccc1C2=O | 12.5 (≈ 37.5 µM) | 6.3 (≈ 18.9 µM) | 25 (≈ 75 µM) | 12.5 (≈ 37.5 µM) | 3.2 (≈ 9.6 µM) | 25 (≈ 75 µM)
16 | Cc1ccn2c3c(cc2c1)C(=O)c1ccccc1C3=O | 12.5 (≈ 47.8 µM) | 12.5 (≈ 47.8 µM) | 6.3 (≈ 24.1 µM) | 6.3 (≈ 24.1 µM) | 50 (≈ 191 µM) | 3.2 (≈ 12.2 µM)
17 | CCc1ccn2c3c(c(C(C)=O)c2c1)C(=O)c1ccccc1C3=O | 50 (≈ 158 µM) | > 100 | 50 (≈ 158 µM) | 25 (≈ 78.8 µM) | 25 (≈ 78.8 µM) | 12.5 (≈ 39.4 µM)
18 | COc1cc[n+](C2=C(Cl)C(=O)C(C)=C(C)C2=O)cc1.[Cl-] | 25 | 100 | 12.5 | 6.3 | 25 | 25

Row | SMILES | MIC [1] [µg/mL] | MIC [2] [µg/mL] | MIC [3] [µg/mL] | MIC [4] [µg/mL] | MIC [5] [µg/mL] | MIC [6] [µg/mL]
19 | COc1ccn2c3c(cc2c1)C(=O)C(C)=C(C)C3=O | 6.3 (≈ 24.7 µM) | 6.3 (≈ 24.7 µM) | 12.5 (≈ 49 µM) | 1.6 (≈ 6.27 µM) | 12.5 (≈ 49 µM) | 6.3 (≈ 24.7 µM)
20 | CCOC(=O)c1c2c(n3ccc(OC)cc13)C(=O)c1ccccc1C2=O | 12.5 (≈ 35.8 µM) | 25 (≈ 71.6 µM) | 25 (≈ 71.6 µM) | 3.2 (≈ 9.16 µM) | 6.3 (≈ 18 µM) | 12.5 (≈ 35.8 µM)
21 | CCOC(=O)c1c2c(n3ccccc13)C(=O)C(C)=C(C)C2=O | 12.5 (≈ 42 µM) | 6.3 (≈ 21.2 µM) | 3.2 (≈ 10.8 µM) | 6.3 (≈ 21.2 µM) | 6.3 (≈ 21.2 µM) | 3.2 (≈ 10.8 µM)
22 | COc1cc[n+](C2=C(Cl)C(=O)c3ccccc3C2=O)cc1.[Cl-] | > 100 | 50 | > 100 | 50 | > 100 | > 100
23 | CCOC(=O)c1c2c(n3ccc(C)cc13)C(=O)c1ccccc1C2=O | 6.3 (≈ 18.9 µM) | 3.2 (≈ 9.6 µM) | 12.5 (≈ 37.5 µM) | 6.3 (≈ 18.9 µM) | 12.5 (≈ 37.5 µM) | 25 (≈ 75 µM)
24 | COc1ccn2c3c(c(C(C)=O)c2c1)C(=O)C(C)=C(C)C3=O | 25 (≈ 84.1 µM) | 25 (≈ 84.1 µM) | 3.2 (≈ 10.8 µM) | 6.3 (≈ 21.2 µM) | 3.2 (≈ 10.8 µM) | 25 (≈ 84.1 µM)
25 | COC(=O)c1c2c(n3ccc(OC)cc13)C(=O)c1ccccc1C2=O | 25 (≈ 74.6 µM) | 50 (≈ 149 µM) | 50 (≈ 149 µM) | 25 (≈ 74.6 µM) | 3.2 (≈ 9.54 µM) | 12.5 (≈ 37.3 µM)
26 | CCOC(=O)c1c2c(n3ccc(CC)cc13)C(=O)C(C)=C(C)C2=O | 6.3 (≈ 19.4 µM) | 12.5 (≈ 38.4 µM) | 6.3 (≈ 19.4 µM) | 6.3 (≈ 19.4 µM) | 12.5 (≈ 38.4 µM) | 6.3 (≈ 19.4 µM)
27 | CCOC(=O)c1c2c(n3ccc(CC)cc13)C(=O)c1ccccc1C2=O | 25 (≈ 72 µM) | 50 (≈ 144 µM) | > 100 | 25 (≈ 72 µM) | > 100 | 50 (≈ 144 µM)
28 | COc1ccc2c(C(C)=O)c3c(n2c1)C(=O)c1ccccc1C3=O | 3.2 (≈ 10 µM) | 3.2 (≈ 10 µM) | 6.3 (≈ 19.7 µM) | 12.5 (≈ 39.1 µM) | 6.3 (≈ 19.7 µM) | 12.5 (≈ 39.1 µM)
29 | Nc1nc(=O)[nH]cc1F [FLUCYTOSINE] | 3.2 (≈ 24.8 µM) | 6.3 (≈ 48.8 µM) | 6.3 (≈ 48.8 µM) | 6.3 (≈ 48.8 µM) | 6.3 (≈ 48.8 µM) | 25 (≈ 194 µM)
30 | CCOC(=O)c1c2c(n3ccc(OC)cc13)C(=O)C(C)=C(C)C2=O | 12.5 (≈ 38.2 µM) | 6.3 (≈ 19.2 µM) | 6.3 (≈ 19.2 µM) | 50 (≈ 153 µM) | 3.2 (≈ 9.78 µM) | 3.2 (≈ 9.78 µM)
31 | COC(=O)c1c2c(n3ccc(OC)cc13)C(=O)C(C)=C(C)C2=O | 6.3 (≈ 20.1 µM) | 25 (≈ 79.8 µM) | 12.5 (≈ 39.9 µM) | 1.6 (≈ 5.11 µM) | 25 (≈ 79.8 µM) | 25 (≈ 79.8 µM)
32 | CC(=O)c1c2c(n3ccc(C)cc13)C(=O)C(C)=C(C)C2=O | 1.6 (≈ 5.69 µM) | 6.3 (≈ 22.4 µM) | 12.5 (≈ 44.4 µM) | 1.6 (≈ 5.69 µM) | 3.2 (≈ 11.4 µM) | 3.2 (≈ 11.4 µM)
33 | CCOC(=O)c1c2c(n3ccccc13)C(=O)c1ccccc1C2=O | > 100 | 25 (≈ 78.3 µM) | 12.5 (≈ 39.1 µM) | 25 (≈ 78.3 µM) | 12.5 (≈ 39.1 µM) | 6.3 (≈ 19.7 µM)
34 | CCc1ccn2c3c(c(C(=O)OC)c2c1)C(=O)c1ccccc1C3=O | 6.3 (≈ 18.9 µM) | 12.5 (≈ 37.5 µM) | 50 (≈ 150 µM) | 12.5 (≈ 37.5 µM) | 3.2 (≈ 9.6 µM) | 25 (≈ 75 µM)
35 | OC(Cn1cncn1)(Cn1cncn1)c1ccc(F)cc1F [FLUCONAZOLE] | 50 (≈ 163 µM) | 3.2 (≈ 10.4 µM) | 25 (≈ 81.6 µM) | 6.3 (≈ 20.6 µM) | 6.3 (≈ 20.6 µM) | 25 (≈ 81.6 µM)
36 | CCOC(=O)c1c2c(n3cc(C)ccc13)C(=O)C(C)=C(C)C2=O | 12.5 (≈ 40.1 µM) | 12.5 (≈ 40.1 µM) | 12.5 (≈ 40.1 µM) | 3.2 (≈ 10.3 µM) | 25 (≈ 80.3 µM) | 12.5 (≈ 40.1 µM)
